Experiments:
[1] = test system: DG/CA3 regions of aMCI subjects; assay: fMRI activity in DG/CA3 during lure stimuli correctly identified as similar; type: in vivo, human
[2] = test system: entorhinal cortex of aMCI subjects; assay: fMRI activity in entorhinal cortex (EC) during successful memory judgments; type: in vivo, human; conditions: levetiracetam 125 mg twice a day for two weeks vs placebo
aMCI subjects = assay: explicit 3-alternative forced choice task (lure images); type: in vivo, human
Source text: See Folstein et al., J Psychiatric Res 12: 189-98, (1975); Robbins et al., Dementia 5: 266-81, (1994); Rey, L'examen clinique en psychologie, (1964); Kluger et al., J Geriatr Psychiatry Neurol 12:168-79, (1999); Marquis et al., 2002 and Masur et al., 1994, or MATRICS consensus neuropsychological test battery which includes tests of working memory, speed of processing, attention, verbal learning, visual learning, reasoning and problem solving and social cognition. Another example of a cognitive test in humans is the explicit 3-alternative forced choice task. In this test, subjects are presented with color photographs of common objects consisting of a mix of three types of image pairs: similar pairs, identical pairs and unrelated foils. The second of the pair of similar objects is referred to as the “lure”. These image pairs are fully randomized and present individually as a series of images. Subjects are instructed to make a judgment as to whether the objects seen are new, old or similar. A “similar” response to the presentation of a lure stimulus indicates successful memory retrieval by the subject.
The activity of the subject's medial temporal lobe is measured by functional MRI during the subject's participation in an explicit 3-alternative forced choice task, where participants view novel, repeated and similar (“lure”) stimuli. The Psychophysics Toolbox extensions in Matlab 7.0 (The MathWorks, Natick, Mass.) is used for stimulus presentation and behavioral data collection. Stimuli are color photographs of common objects. Each participant undergoes a series of testing runs during the functional imaging sessions, each run consisting of a mix of three types of image pairs: similar pairs, identical pairs and unrelated foils. These image pairs are fully randomized throughout the run and present individually as a series of images (see FIG. 6A). […]
The activity of the subject's medial temporal lobe is measured by functional MRI during the subject's participation in an explicit 3-alternative forced choice task, where participants view novel, repeated and similar (“lure”) stimuli. […]

sematostatin in DG hilus = assay: somatostatin in DG hilus after four weeks of osmotic minipump treatment (Example 5); type: in vivo, rat; conditions: levetiracetam 10 mg/kg/day in osmotic minipumps for four weeks, aged-impaired rats
[3] = test system: reelin in Entorhinal Cortex (EC2); assay: reelin in entorhinal cortex after four weeks of osmotic minipump treatment (Example 5); type: in vivo, rat; conditions: levetiracetam 10 mg/kg/day in osmotic minipumps for four weeks, aged-impaired rats
[4] = test system: reelin in Entorhinal Cortex (EC2); assay: Reelin mRNA in situ hybridization in entorhinal cortex of aged-impaired rats; type: in vivo, rat; conditions: 10 mg/kg/day for 28 days, compared to AI-VEH, p=0.033
Experimental: In situ hybridization was carried out as described by Haberman et al., (2008). Free-floating tissue sections were washed in 0.75% glycine in 0.1M phosphate buffer two times, followed by a single wash in phosphate buffer. After that, sections were reacted in Proteinase K buffer containing 1.0 μg/ml proteinase K for 30 minutes at 37° C. Sections were then treated with acetic anhydride solution (11.3% triethanolamine, 0.25% acetic anhydride, 0.04 M acetic acid) for 10 minutes at room temperature. This was followed by two 15-minute washes in 2× sodium chloride/citrate buffer (SSC buffer; 20× concentration, 3M NaCl, 0.3M sodium citrate). Next, sections were transferred to hybridization buffer containing 20% formamide, 0.4×Denhardt's solution, 4% dextran sulfate, and 1.6×SSC) supplemented with 0.25 mg/ml tRNA, 0.33 mg/ml sheared salmon sperm DNA, 100 mM DTT, and 1×10^7 cpm/ml 35S-UTP-labeled probe for overnight reaction at 60° C. The following day, sections were washed at 60° C. in 4×SSC/0.01M DTT and 2×SSC/50% formamide. They were then incubated with RNase (20 μg/ml) at 37° C. for 30 min. […] Slides were dried overnight, exposed to a phosphoimager screen, and quantified by using ImageQuant (GE Healthcare). Digital images were acquired of entorhinal cortical sections from the same levels for all animals and the subregion of interest was outlined and quantified. […]

[5] = cited from earlier work

Structure (SMILES): CC[C@@H](C(N)=O)N1CCCC1=O [levetiracetam, (2S)-2-(2-oxopyrrolidin-1-yl) butanamide]
- DG/CA3 hyperactivity during successful memory judgments ([1]; levetiracetam 62.5 mg BID for two weeks, cohort N=20): does not significantly reduce the DG/CA3 hyperactivity
- DG/CA3 activity during successful memory judgments ([1]; levetiracetam 125 mg twice a day for two weeks vs placebo, same aMCI subjects, p=0.037): reduces DG/CA3 hyper-activity
- DG/CA3 hyperactivity during successful memory judgments ([1]; levetiracetam 250 mg BID for two weeks, cohort N=17): does not significantly reduce the DG/CA3 hyperactivity
- EC activity during memory judgments [2]: normalizes activity
- performance of aMCI subjects in the memory task (similar vs old responses to lures) (aMCI subjects; levetiracetam 62.5 mg BID for two weeks vs placebo, p=0.041): improves significantly
- performance of aMCI subjects in the memory task (similar vs old responses to lures) (aMCI subjects; levetiracetam 125 mg twice a day for two weeks vs placebo, p=0.039): improves significantly
- performance of aMCI subjects in the memory task (similar vs old responses to lures) (aMCI subjects; levetiracetam 250 mg BID for two weeks vs placebo, p=0.2396): does not significantly improve
- somatostatin in DG hilus (sematostatin in DG hilus): restores sematostatin in DG hilus
- reelin in Entorhinal Cortex (EC2) [3]: restores reelin in Entorhinal Cortex (EC2)
- reelin mRNA expression in the lateral entorhinal cortex (EC2) [4]: significantly increased the expression of reelin
- plasma half-life expected in elderly ([5]; elderly, decreased renal function): 9 to 10 h
- absorption ([5]; in vivo, po): rapidly and almost completely absorbed
- time of peak plasma concentrations ([5]; in vivo, po): about 1 hour
- plasma half-life ([5]; in vivo): approximately 7±1 hour
- time to steady state ([5]; in vivo): 2 days
- effect of food on bioavailability ([5]; oral): not affected by food

Source: patent US11160785B2, “Methods and compositions for improving cognitive function” (AgeneBio, Inc., priority 2013, dated 2021)
